Source: publication PMC11510069, “Anti-Diabetic Activities and Molecular Docking Studies of Aryl-Substituted Pyrazolo[3,4-b]pyridine Derivatives Synthesized via Suzuki Cross-Coupling Reaction” (Pharmaceuticals, 2024)
Read-outs that look alike come from different tables or passages of the source.

What was measured:
[1] = target: T1, α-amylase (Hi media RM 638) enzyme (Aspergillus oryzae, UniProt P0C1B3); assay: biochemical
T1 construct: purchased Hi media RM 638
Protocol: The anti-diabetic activity of all the prepared derivatives (6a–i) and (7a–i) was evaluated following the method reported in refs. [31, 32]. In brief, to check the anti-diabetic activity of each compound, […] different concentrations, ranging from 250 to 50 μg, with a difference of 50 μg, were used and each concentration was treated with 200 μL of α-amylase (Hi media RM 638) enzyme to determine the anti-diabetic activity in triplicate at each concentration. Here, 0.6 mL of each sample at each concentration was mixed with 0.6 mL of buffered solution (0.03 M sodium phosphate buffer), which was subsequently incubated for 16 min at 37 °C. Afterwards, 1 mL of starch solution was added to the above solutions. In the next step, 1 mL of color-imparting reagent, […] (DNSA), was poured into each solution and the solution was left for 6 min in boiling water. Finally, the solutions were made up to 20 mL with distilled water. […] The absorbance value taken at 670 nm was used to check the performance of the newly obtained derivatives. The following Equation (1) was used to determine the percentage inhibition of each drug at the different concentrations. (1) %A=Acontrol−Asample/Acontrol×100 where %A, Acontrol and Asample are the percentage inhibition, absorbance blank and absorbance of sample, respectively.
The concentration of pyrazolo[3,4-b]pyridine derivative needed to inhibit the α-amylase activity by 50% is known as the IC50 value and is calculated from the plot of the percent inhibition against the log inhibitor concentration (i.e., synthesized drugs). A non-linear regression analysis on Graph Pad Prism 8.0.2. was performed on the plots to extract the IC50 value for each compound.

[2] = Table 3, anti-diabetic, hydrazide derivatives, read-out: IC50 Value
[3] = Figure 6, read-out: IC50 (α-amylase inhibition)
[4] = Table 2, in vitro anti-diabetic, ester derivatives, read-out: IC50 Value

| Compound | IC50 [1, 2] [µM] | melting point [°C] | IC50 [1, 3] [µM] | IC50 [1, 4] [µM] |
| --- | --- | --- | --- | --- |
| CCOC(=O)c1cc(-c2ccc(-c3ccc(Cl)s3)s2)c2c(C)nn(-c3ccccc3)c2n1 [Compound 6i, Ethyl 4-(5′-Chloro-[2,2′-bithiophen]-5-yl)-3-methyl-1-phenyl-1H-pyrazolo[3,4-b]pyridine-6-carboxylate] | – | 165 | – | 7.4 |
| CCOC(=O)c1cc(-c2ccc(-c3ccccc3)s2)c2c(C)nn(-c3ccccc3)c2n1 [Compound 6b, Ethyl 3-Methyl-1-phenyl-4-(5-phenylthiophen-2-yl)-1H-pyrazolo[3,4-b]pyridine-6-carboxylate] | – | – | – | 5.14 |
| CCOC(=O)c1cc(-c2ccc(-c3cccc4c3OCO4)s2)c2c(C)nn(-c3ccccc3)c2n1 [Compound 6c, Ethyl 4-(5-(Benzo[d][1,3]dioxol-4-yl)thiophen-2-yl)-3-methyl-1-phenyl-1H-pyrazolo[3,4-b]pyridine-6-carboxylate] | – | 127 | – | 5.15 |
| CCOC(=O)c1cc(-c2ccc(-c3cccs3)s2)c2c(C)nn(-c3ccccc3)c2n1 [Compound 6a, Ethyl 4-([2,2′-Bithiophen]-5-yl)-3-methyl-1-phenyl-1H-pyrazolo[3,4-b]pyridine-6-carboxylate] | – | 154 to 157 | – | 8.38 |
| Cc1nn(-c2ccccc2)c2nc(C(=O)NN)cc(-c3ccc(Br)s3)c12 [Compound 5, 4-(5-Bromothiophen-2-yl)-3-methyl-1-phenyl-1H-pyrazolo[3,4-b]pyridine-6-carbohydrazide] | 7.91 | 265 | – | – |
| CCOC(=O)c1cc(-c2ccc(-c3cccc(C(F)(F)F)c3)s2)c2c(C)nn(-c3ccccc3)c2n1 [Compound 6h, Ethyl 3-Methyl-1-phenyl-4-(5-(3-(trifluoromethyl)phenyl)thiophene-2-yl)-1H-pyrazolo[3,4-b]pyridine-6-carboxylate] | – | 149.5 | 5.56 | 5.2 |
| CCOC(=O)c1cc(-c2ccc(-c3cccc(C(C)(C)C)c3)s2)c2c(C)nn(-c3ccccc3)c2n1 [Compound 6f, Ethyl 4-(5-(3-(Tert-butyl)phenyl)thiophen-2-yl)-3-methyl-1-phenyl-1H-pyrazolo[3,4-b]pyridine-6-carboxylate] | – | – | 58.7 | 58.6 |
| Ethyl 4-(5-(3,5-Dimethylphenyl)thiophen-2-yl)-3-methyl-1-phenyl-1H-pyrazolo[3,4-b]pyridine-6-carboxylate [Compound 6e] | – | – | – | 9.01 |
| CCOC(=O)c1cc(-c2ccc(Br)s2)c2c(C)nn(-c3ccccc3)c2n1 [Compound 4, Ethyl 4-(5-Bromothiophen-2-yl)-3-methyl-1-phenyl-1H-pyrazolo[3,4-b]pyridine-6-carboxylate] | – | 203 to 205 | – | 7.26 |
| CCOC(=O)c1cc(-c2ccc(-c3cccc(F)c3F)s2)c2c(C)nn(-c3ccccc3)c2n1 [Compound 6g, Ethyl 4-(5-(2,3-Difluorophenyl)thiophen-2-yl)-3-methyl-1-phenyl-1H-pyrazolo[3,4-b]pyridine-6-carboxylate] | – | 170.3 | 5.2 | 5.56 |
| CCOC(=O)c1cc(-c2ccc(-c3cc(OC)cc(OC)c3)s2)c2c(C)nn(-c3ccccc3)c2n1 [Compound 6d, Ethyl 4-(5-(3,5-Dimethoxyphenyl)thiophene-2-yl)-3-methyl-1-phenyl-1H-pyrazolo[3,4-b]pyridine-6-carboxylate] | – | 147.5 | – | 7.06 |

Now from value to compound:

| IC50 [1, 2] [µM] | melting point [°C] | IC50 [1, 3] [µM] | IC50 [1, 4] [µM] | Compound |
| --- | --- | --- | --- | --- |
| 5.12 | 249 | – | – | COc1cc(OC)cc(-c2ccc(-c3cc(C(=O)NN)nc4c3c(C)nn4-c3ccccc3)s2)c1 [Compound 7d, 4-(5-(3,5-Dimethoxyphenyl)thiophen-2-yl)-3-methyl-1-phenyl-1H-pyrazolo[3,4-b]pyridine-6-carbohydrazide] |
| 5.19 | – | 6.19 | – | Cc1nn(-c2ccccc2)c2nc(C(=O)NN)cc(-c3ccc(-c4cccc(C(F)(F)F)c4)s3)c12 [Compound 7h, 3-Methyl-1-phenyl-4-(5-(3-(trifluoromethyl)phenyl)thiophen-2-yl)-1H-pyrazolo[3,4-b]pyridine-6-carbohydrazide] |
| 5.21 | 255 | – | – | Cc1nn(-c2ccccc2)c2nc(C(=O)NN)cc(-c3ccc(-c4cccs4)s3)c12 [Compound 7a, 4-([2,2′-Bithiophen]-5-yl)-3-methyl-1-phenyl-1H-pyrazolo[3,4-b]pyridine-6-carbohydrazide] |
| 8.94 | – | – | – | Cc1ccc(-c2ccc(-c3cc(C(=O)NN)nc4c3c(C)nn4-c3ccccc3)s2)c(C)c1 [Compound 7e, 4-(5-(2,4-Dimethylphenyl)thiophen-2-yl)-3-methyl-1-phenyl-1H-pyrazolo[3,4-b]pyridine-6-carbohydrazide] |
| 5.17 | 276 | – | – | Cc1nn(-c2ccccc2)c2nc(C(=O)NN)cc(-c3ccc(-c4cccc5c4OCO5)s3)c12 [Compound 7c, 4-(5-(Benzo[d][1,3]dioxol-4-yl)thiophen-2-yl)-3-methyl-1-phenyl-1H-pyrazolo[3,4-b]pyridine-6-carbohydrazide] |
| 5.18 | – | – | – | Cc1nn(-c2ccccc2)c2nc(C(=O)NN)cc(-c3ccc(-c4ccccc4)s3)c12 [Compound 7b, 3-Methyl-1-phenyl-4-(5-phenylthiophen-2-yl)-1H-pyrazolo[3,4-b]pyridine-6-carbohydrazide] |
| 5.1 | – | – | – | Cc1nn(-c2ccccc2)c2nc(C(=O)NN)cc(-c3ccc(-c4cccc(C(C)(C)C)c4)s3)c12 [Compound 7f, 4-(5-(3-(Tert-butyl)phenyl)thiophen-2-yl)-3-methyl-1-phenyl-1H-pyrazolo[3,4-b]pyridine-6-carbohydrazide] |
| 5.15 | 275 | 5.16 | – | Cc1nn(-c2ccccc2)c2nc(C(=O)NN)cc(-c3ccc(-c4cccc(F)c4F)s3)c12 [Compound 7g, 4-(5-(2,3-Fluorophenyl)thiophen-2-yl)-3-methyl-1-phenyl-1H-pyrazolo[3,4-b]pyridine-6-carbohydrazide] |
| 8.45 | 270 | – | – | Cc1nn(-c2ccccc2)c2nc(C(=O)NN)cc(-c3ccc(-c4ccc(Cl)s4)s3)c12 [Compound 7i, 4-(5′-Chloro-[2,2′-bithiophen]-5-yl)-3-methyl-1-phenyl-1H-pyrazolo[3,4-b]pyridine-6-carbohydrazide] |
